Read-outs that look alike come from different tables or passages of the source. Square brackets hold non-standard residues; d marks the D form. Peptide text beside a SMILES is read from it. * marks the point of attachment. Ala(6-iPr-benzothiazol-2-yl) = CC(C)c1ccc2nc(C[C@H](N)C(=O)O)sc2c1; Ala(benzothiazol-2-yl) = N[C@@H](Cc1nc2ccccc2s1)C(=O)O; 2Nal = N[C@@H](Cc1ccc2ccccc2c1)C(=O)O; NHPhenethyl = c1ccc(CCN*)cc1; NHBn = c1ccc(CN*)cc1; Propionyl = CCC(=O)*; NHPh = c1ccc(N*)cc1
Target: DCN1 (Homo sapiens (Human), UniProt Q96GG9)
Test: Competitive FP binding assay
Description: Competitive FP Binding Assay
The Fluorescence Polarization (FP) competitive binding assays were performed to accurately determine the binding affinities of our DCN1 inhibitors. […] Serial dilutions of proteins were mixed with 46 to a final volume of 200 μl in the assay buffer (100 mM phosphate buffer, pH=6.5, with 0.02% Tween-20 and 2% DMSO). Final probe concentration was 5 nM for both assays. Plates were incubated at room temperature for 30 minutes with gentle shaking to assure equilibrium.
Pure proteins were derived from the same expression and purification protocols. Plasmids were transformed into Rosetta2 cells, the cells were grown in Terrific Broth at 37° C. to an O.D.600>1.0 and induced with 0.4 mM Isopropyl (3-D-1-thiogalactopyranoside overnight at 20° C. The pelleted cells were resuspended in lysis buffer containing 25 mM Tris-HCl, pH 7.5, 200 mM NaCl and protease inhibitors, sonicated and centrifuged at 34,000×g for 45 minutes to remove debris. Cleared lysate was incubated with Ni-NTA resin (Qiagen) prewashed with lysis buffer, for 1 hr at 4° C. The matrix was loaded into a column then washed with 25 mM Tris-HCl, pH 7.5, 200 mM NaCl and 10 mM imidazole. Protein was eluted with 25 mM Tris-HCl, pH 7.5, 200 mM NaCl and 300 mM imidazole, concentrated and applied to a Superdex 75 (GE Healthcare) column pre-equilibrated with 25 mM Tris pH 7.5, 200 mM NaCl and 1 mM DTT. For DCN2-5, the N-terminal His6 tag was removed prior to gel filtration. Tag removal was achieved through incubation with TEV protease during overnight dialysis against 25 mM Tris pH 7.5, 200 mM NaCl and 1 mM DTT and a second Ni-NTA column. DCN2-5 proteins were stored at −80° C. in 1 mg/mL fractions containing 5% glycerol. The uncleaved DCN1 protein was stored at −80° C. without glycerol.

[1] = bounds given in μM, read-out: Binding affinity to DCN1 (IC50)
[2] = read-out: Binding affinity to DCN1 (IC50 (nM))

Chain of DCN1 (Q96GG9 58-259): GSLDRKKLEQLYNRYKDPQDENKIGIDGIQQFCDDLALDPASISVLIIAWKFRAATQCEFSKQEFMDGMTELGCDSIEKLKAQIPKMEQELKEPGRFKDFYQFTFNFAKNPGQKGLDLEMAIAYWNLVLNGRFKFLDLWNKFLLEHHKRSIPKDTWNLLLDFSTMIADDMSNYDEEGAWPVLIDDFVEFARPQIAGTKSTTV

| SMILES | IC50 [1] | IC50 [2] |
| --- | --- | --- |
| CCC(=O)N[C@@H](Cc1nc2ccc(Cl)cc2s1)C(=O)N[C@H](CN)Cc1ccccc1 (stereo in doubt) [Example 87] | > 10 µM |  |
| CCC(=O)N[C@@H](Cc1nc2ccc(Cl)cc2s1)C(=O)N[C@@H](CN)Cc1ccccc1 (stereo in doubt) [Example 88] | > 10 µM |  |
| CCC(=O)N[C@@H](Cc1nc2ccc(C(C)C)cc2s1)C(=O)N[C@H](CN)Cc1ccccc1 (stereo in doubt) [Example 89] | > 10 µM |  |
| CCC(=O)N[C@@H](Cc1nc2ccc(C(C)C)cc2s1)C(=O)N[C@@H](CN)Cc1ccccc1 (stereo in doubt) [Example 91] | > 10 µM |  |
| CCC(=O)N[C@@H](Cc1nc2ccc(C(C)C)cc2s1)C(=O)N[C@@H](CNC(=O)CCN1CCOCC1)Cc1ccccc1 (stereo in doubt) [Example 94] | > 10 µM |  |
| CC(C)CC(C)C(=O)N[C@@H](Cc1nc2ccc(C(C)C)cc2s1)C(=O)NCCN (stereo partly drawn) [97 & 98] | > 10 µM |  |
| CCC(=O)N[C@@H](Cc1cn2cc(C(C)C)ccc2n1)C(=O)N[C@H](C(=O)N[C@@H](CCCCN)C(=O)N[C@@H]1CCOc2ccccc21)C1CCOCC1 [210 & 211] |  | 0.0812 µM |
| CCC(=O)N[C@@H](Cc1nc2ccc(Cl)cc2s1)C(=O)N[C@H](C(=O)N[C@@H](CCCCN)C(=O)NC(c1ccccn1)c1ccccn1)C1CCOCC1 [244 & 245] |  | 0.297 µM |
| CCC(=O)N[C@@H](Cc1nc2ccc(Cl)cc2s1)C(=O)N[C@H](C(=O)N[C@@H](CCCCN)C(=O)N[C@@H](c1ccccc1)c1cn(CCO)nn1)C1CCOCC1 [249 & 250] |  | 0.12 µM |
| CCC(=O)N[C@@H](Cc1nc2ccc(Cl)cc2s1)C(=O)N[C@@H](C[C@H]1CC[C@H](CNC(=O)COCCOCCOCCNC(=O)CCCC[C@@H]2SC[C@@H]3NC(=O)N[C@@H]32)CC1)C(=O)N[C@@H](CCCCN(C)C)C(=O)N[C@@H]1CCOc2ccccc21 [DI-427biotin (NC)] | > 10 µM |  |
| CCC(=O)N[C@@H](Cc1nc2ccc(Cl)cc2s1)C(=O)N[C@@H](C[C@H]1CC[C@H](CNC(=O)COCCOCCOCCNC(=O)CCCC[C@@H]2SC[C@@H]3NC(=O)N[C@@H]32)CC1)C(=O)N[C@@H](CCCCN(C)C)C(=O)N[C@@H]1CCOc2ccccc21 [DI-427biotin] |  | 0.189 µM |
| CCC(=O)N[C@@H](Cc1nc(C)n(-c2ccccc2)n1)C(=O)N[C@H](CN)Cc1ccccc1 [DI-532] | > 10 µM |  |
| CCC(=O)N[C@@H](Cc1nc(C)n(C(C)C)n1)C(=O)N[C@H](CN)Cc1ccccc1 [DI-533] | > 10 µM |  |
| CCC(=O)N[C@@H](Cc1nc2ccc(C(C)C)cc2s1)C(=O)N[C@H](CNC(=O)NC1CCNCC1)C1CCCCC1 [DI-749] |  | 0.0529 µM |
| CCC(=O)N[C@@H](Cc1nc2ccc(C(C)C)cc2s1)C(=O)N[C@H](CNS(=O)(=O)C1CCNCC1)C1CCCCC1 [DI-777] |  | 0.0553 µM |
| CC[C@H](C)[C@H](NC(=O)[C@H](Cc1ccc2ccccc2c1)NC(C)=O)C(=O)N[C@@H](CCCCN)C(=O)N[C@@H](CC(C)C)C(N)=O [Example 1] (Ac-[2Nal]IKL-NH2) | > 10 µM |  |
| CC[C@H](C)[C@H](NC(=O)[C@H](Cc1nc2ccccc2s1)NC(C)=O)C(=O)N[C@@H](CCCCN)C(=O)N[C@@H](CC(C)C)C(N)=O [Example 2, (S)-2-((2S,3 S)-2-((S)-2-acetamido-3-(benzo[d]thiazol-2-yl)propanamido)-3-methylpentanamido)-6-amino-N—((S)-1-amino-4-methyl-1-oxopentan-2-yl)hexanamide] (Ac-[Ala(benzothiazol-2-yl)]IKL-NH2) |  | 0.322 µM |
| CC[C@H](C)[C@H](NC(=O)[C@H](Cc1nc2cc(Cl)ccc2s1)NC(C)=O)C(=O)N[C@@H](CCCCN)C(=O)N[C@@H](CC(C)C)C(N)=O [Example 3, (S)-2-((2S,3 S)-2-((S)-2-acetamido-3-(5-chlorobenzo[d]thiazol-2-yl)propanamido)-3-methylpentanamido)-6-amino-N—((S)-1-amino-4-methyl-1-oxopentan-2-yl)hexanamide] |  | 0.0092 ± 0.0014 µM |
| CC[C@H](C)[C@H](NC(=O)[C@H](Cc1nc2ccc(Cl)cc2s1)NC(C)=O)C(=O)N[C@@H](CCCCN)C(=O)N[C@@H](CC(C)C)C(N)=O [Example 4, (S)-2-((2S,3 S)-2-((S)-2-acetamido-3-(6-chlorobenzo[d]thiazol-2-yl)propanamido)-3-methylpentanamido)-6-amino-N—((S)-1-amino-4-methyl-1-oxopentan-2-yl)hexanamide] |  | 0.116 µM |
| CC[C@H](C)[C@H](NC(=O)[C@H](Cc1nc2ccc(C(C)C)cc2s1)NC(C)=O)C(=O)N[C@@H](CCCCN)C(=O)N[C@@H](CC(C)C)C(N)=O [Example 5, (S)-2-((2S,3 S)-2-((S)-2-acetamido-3-(6-isopropylbenzo[d]thiazol-2-yl)propanamido)-3-methylpentanamido)-6-amino-N—((S)-1-amino-4-methyl-1-oxopentan-2-yl)hexanamide] (Ac-[Ala(6-iPr-benzothiazol-2-yl)]IKL-NH2) |  | 0.0401 µM |

| SMILES | IC50 [1] | IC50 [2] |
| --- | --- | --- |
| CC[C@H](C)[C@H](NC(=O)[C@H](Cc1nc2ccc(C(C)C)cc2s1)NC(C)=O)C(=O)N[C@@H](CCCCN)C(N)=O [Example 6, (S)-2-((2S,3 S)-2-((S)-2-acetamido-3-(6-isopropylbenzo[d]thiazol-2-yl)propanamido)-3-methylpentanamido)-6-aminohexanamide] |  | 0.632 ± 0.029 µM |
| CC[C@H](C)[C@H](NC(=O)[C@H](Cc1nc2ccc(C(C)C)cc2s1)NC(C)=O)C(N)=O [Example 7, (2S,3S)-2-((S)-2-acetamido-3-(6-isopropylbenzo[d]thiazol-2-yl)propanamido)-3-methylpentanamide] |  | 1.04 ± 0.128 µM |
| CCC(=O)N[C@@H](Cc1ccc2ccccc2c1)C(=O)N[C@H](C(=O)N[C@@H](CCCCN)C(=O)NC1CCCCC1)[C@@H](C)CC [Example 8] | > 3 µM |  |
| CCC(=O)N[C@@H](Cc1ccc2ccccc2c1)C(=O)N[C@H](C(=O)N[C@@H](CCCCN)C(=O)Nc1ccccc1)[C@@H](C)CC [Example 9] (Propionyl-[2Nal]-Ile-Lys-NHPh) | > 10 µM |  |
| CCC(=O)N[C@@H](Cc1ccc2ccccc2c1)C(=O)N[C@H](C(=O)N[C@@H](CCCCN)C(=O)NCc1ccccc1)[C@@H](C)CC [Example 10] (Propionyl-[2Nal]-Ile-Lys-NHBn) |  | 3.9 µM |
| CCC(=O)N[C@@H](Cc1ccc2ccccc2c1)C(=O)N[C@H](C(=O)N[C@@H](CCCCN)C(=O)NCCc1ccccc1)[C@@H](C)CC [Example 11] (Propionyl-[2Nal]-Ile-Lys-NHPhenethyl) | > 10 µM |  |
| CCC(=O)N[C@@H](Cc1ccc2ccccc2c1)C(=O)N[C@H](C(=O)N[C@@H](CCCCN)C(=O)NC(c1ccccc1)c1ccccc1)[C@@H](C)CC [Example 12] |  | 0.611 ± 0.193 µM |
| CCC(=O)N[C@@H](Cc1ccc2ccccc2c1)C(=O)N[C@H](C(=O)N[C@@H](CCCCN)C(=O)N[C@@H]1CCc2ccccc21)[C@@H](C)CC [Example 13] |  | 0.913 µM |
| CCC(=O)N[C@@H](Cc1ccc2ccccc2c1)C(=O)N[C@H](C(=O)N[C@@H](CCCCN)C(=O)N[C@H]1CCc2ccccc21)[C@@H](C)CC [Example 14] |  | 1.93 µM |
| CCC(=O)N[C@@H](Cc1ccc2ccccc2c1)C(=O)N[C@H](C(=O)N[C@@H](CCCCN)C(=O)N[C@@H]1CCCc2ccccc21)[C@@H](C)CC [Example 15] |  | 0.461 µM |
| CCC(=O)N[C@@H](Cc1ccc2ccccc2c1)C(=O)N[C@H](C(=O)N[C@@H](CCCCN)C(=O)N[C@H]1CCCc2ccccc21)[C@@H](C)CC [Example 16] |  | 0.795 µM |
| CCC(=O)N[C@@H](Cc1ccc2ccccc2c1)C(=O)N[C@H](C(=O)N[C@@H](CCCCN)C(=O)N[C@@H]1CCOc2ccccc21)[C@@H](C)CC [Example 17] |  | 0.651 µM |
| CCC(=O)N[C@@H](Cc1ccc2ccccc2c1)C(=O)N[C@H](C(=O)N[C@@H](CCCCN)C(=O)N[C@H]1CCOc2ccccc21)[C@@H](C)CC [Example 18] |  | 3.05 µM |
| CCC(=O)N[C@@H](Cc1ccc2ccccc2c1)C(=O)N[C@H](C(=O)N[C@@H](CCCCN)C(=O)NC(c1ccccc1)c1ccccc1)C1CCCC1 [Example 19] |  | 0.27 µM |
| CCC(=O)N[C@@H](Cc1ccc2ccccc2c1)C(=O)N[C@H](C(=O)N[C@@H](CCCCN)C(=O)NC(c1ccccc1)c1ccccc1)C1CCCCC1 [Example 20] |  | 0.341 µM |
| CCC(=O)N[C@@H](Cc1ccc2ccccc2c1)C(=O)N[C@@H](CC1CCCCC1)C(=O)N[C@@H](CCCCN)C(=O)NC(c1ccccc1)c1ccccc1 [Example 21] |  | 0.29 µM |
| CCC(=O)N[C@@H](Cc1ccc2ccccc2c1)C(=O)N[C@@H](CC(C)(C)C)C(=O)N[C@@H](CCCCN)C(=O)NC(c1ccccc1)c1ccccc1 [Example 22] |  | 0.361 µM |
| CCC(=O)N[C@@H](Cc1ccc2ccccc2c1)C(=O)N[C@@H](CC(F)(F)F)C(=O)N[C@@H](CCCCN)C(=O)NC(c1ccccc1)c1ccccc1 [Example 23] | > 1 µM |  |
| CCC(=O)N[C@@H](Cc1ccc2ccccc2c1)C(=O)N[C@@H](Cc1cccs1)C(=O)N[C@@H](CCCCN)C(=O)NC(c1ccccc1)c1ccccc1 [Example 24] |  | 0.967 µM |

From US12012467B2, “Small molecule DCN1 inhibitors and therapeutic methods using the same” (THE REGENTS OF THE UNIVERSITY OF MICHIGAN, priority 2017, dated 2024)
